Measured values as given in ChEMBL document CHEMBL2062376, “Novel oxazolo[4,5-g]quinazolin-2(1H)-ones: dual inhibitors of EGFR and Src protein tyrosine kinases” (Eur J Med Chem, 2012).
Activity calls are given as the source filed them. No cut-off for these calls is given here.

How the values were obtained:
[1] = molecular target: T1, Epidermal growth factor receptor (Homo sapiens, UniProt P00533); assay: Inhibition of EGFR at >100 uM
[2] = molecular target: T1, Epidermal growth factor receptor
[3] = molecular target: Proto-oncogene tyrosine-protein kinase Src (Homo sapiens, UniProt P12931); assay: Inhibition of SRC
Proto-oncogene tyrosine-protein kinase Src, sequence (P12931 2-536 limits assumed): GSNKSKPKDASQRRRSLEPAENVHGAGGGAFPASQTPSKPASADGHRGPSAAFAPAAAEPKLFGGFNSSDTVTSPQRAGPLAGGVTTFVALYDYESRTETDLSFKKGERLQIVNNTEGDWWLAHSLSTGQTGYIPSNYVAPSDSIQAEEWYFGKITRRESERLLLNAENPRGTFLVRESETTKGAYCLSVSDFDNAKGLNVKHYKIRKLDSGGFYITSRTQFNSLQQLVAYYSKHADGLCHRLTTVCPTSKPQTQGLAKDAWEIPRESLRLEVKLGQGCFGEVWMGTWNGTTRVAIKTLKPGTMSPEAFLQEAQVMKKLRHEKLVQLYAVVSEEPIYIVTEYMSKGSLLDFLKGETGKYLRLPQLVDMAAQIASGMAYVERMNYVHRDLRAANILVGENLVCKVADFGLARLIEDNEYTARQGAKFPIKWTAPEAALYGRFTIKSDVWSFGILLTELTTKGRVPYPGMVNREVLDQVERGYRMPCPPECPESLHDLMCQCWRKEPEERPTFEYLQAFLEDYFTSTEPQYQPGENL

KB = assay: Antiproliferative activity against human KB cells expressing EGFR and SRC by MTT assay; assay type: functional, cell-based
A498 = assay: Antiproliferative activity against human A498 cells expressing EGFR and SRC by MTT assay; assay type: functional, cell-based

T1 sequence (P00533 whole entry): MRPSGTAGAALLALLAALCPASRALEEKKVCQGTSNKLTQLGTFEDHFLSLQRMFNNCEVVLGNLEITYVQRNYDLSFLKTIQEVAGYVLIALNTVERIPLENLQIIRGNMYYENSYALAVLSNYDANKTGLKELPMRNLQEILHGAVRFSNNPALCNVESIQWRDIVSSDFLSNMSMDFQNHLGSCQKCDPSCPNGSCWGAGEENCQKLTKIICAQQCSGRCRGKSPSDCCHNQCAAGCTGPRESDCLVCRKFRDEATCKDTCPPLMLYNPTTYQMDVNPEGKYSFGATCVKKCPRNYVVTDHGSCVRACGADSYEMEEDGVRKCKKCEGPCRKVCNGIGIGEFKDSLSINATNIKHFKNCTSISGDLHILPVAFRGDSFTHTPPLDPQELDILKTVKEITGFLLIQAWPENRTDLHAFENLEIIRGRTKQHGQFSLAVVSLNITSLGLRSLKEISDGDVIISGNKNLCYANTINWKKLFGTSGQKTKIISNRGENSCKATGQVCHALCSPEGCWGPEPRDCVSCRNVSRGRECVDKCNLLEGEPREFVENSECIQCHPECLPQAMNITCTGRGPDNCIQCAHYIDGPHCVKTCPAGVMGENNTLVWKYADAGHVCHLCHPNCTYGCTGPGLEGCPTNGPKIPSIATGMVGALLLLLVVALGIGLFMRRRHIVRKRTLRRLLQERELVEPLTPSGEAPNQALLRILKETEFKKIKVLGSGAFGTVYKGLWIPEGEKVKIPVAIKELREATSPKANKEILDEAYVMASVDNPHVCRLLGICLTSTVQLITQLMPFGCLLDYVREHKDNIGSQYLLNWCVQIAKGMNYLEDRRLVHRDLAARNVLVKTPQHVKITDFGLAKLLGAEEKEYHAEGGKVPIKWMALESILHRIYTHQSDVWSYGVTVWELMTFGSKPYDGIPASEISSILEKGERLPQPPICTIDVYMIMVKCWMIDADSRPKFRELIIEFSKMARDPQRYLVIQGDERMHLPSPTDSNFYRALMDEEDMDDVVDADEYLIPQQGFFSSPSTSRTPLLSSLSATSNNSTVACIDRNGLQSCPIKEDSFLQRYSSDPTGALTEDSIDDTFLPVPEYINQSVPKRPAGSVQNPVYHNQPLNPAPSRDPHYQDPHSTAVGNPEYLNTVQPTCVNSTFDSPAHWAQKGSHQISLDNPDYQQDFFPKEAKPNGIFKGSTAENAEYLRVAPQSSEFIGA

## NS(=O)(=O)c1ccc(Nc2ncnc3cc4oc(=O)n(CCCN5CCOCC5)c4cc23)cc1
[1]
  inhibition: inactive

## C#Cc1cccc(Nc2ncnc3cc4oc(=O)n(CCCN5CCOCC5)c4cc23)c1
[2]
  IC50: 0.38 µM

## C[C@H](Nc1ncnc2cc3oc(=O)n(CCCN4CCOCC4)c3cc12)c1ccccc1
[2]
  IC50: 3.7 µM

## COc1ccc(Nc2ncnc3cc4oc(=O)n(CCCN5CCOCC5)c4cc23)cc1OC
[1]
  inhibition: inactive

## CC(C)Oc1cccc(Nc2ncnc3cc4oc(=O)n(CCCN5CCOCC5)c4cc23)c1
[2]
  IC50: 3 µM

## O=c1oc2cc3ncnc(Nc4ccccc4O)c3cc2n1CCCN1CCOCC1
[2]
  IC50: 30 µM

## CN(C)S(=O)(=O)c1ccc2c(c1)/C(=C/c1cc3c([nH]1)CCCC3)C(=O)N2
[3]
  IC50: 0.073 µM

## CN(c1ccccc1)c1ncnc2cc3oc(=O)n(CCCN4CCOCC4)c3cc12
[2]
  IC50: 7.2 µM

## CN1CCN(c2ncnc3cc4oc(=O)n(CCCN5CCOCC5)c4cc23)CC1
[1]
  inhibition: inactive

## CCOC(=O)c1ccc(Nc2ncnc3cc4oc(=O)n(CCCN5CCOCC5)c4cc23)cc1
[2]
  IC50: 5.8 µM
[3]
  IC50: 3.1 µM
KB
  IC50: 6 µM
A498
  IC50: 8.8 µM

## O=c1oc2cc3ncnc(Nc4ccc(OCc5ccccn5)cc4)c3cc2n1CCCN1CCOCC1
[2]
  IC50: 1.7 µM

## Cc1c(OCC(F)(F)F)ccnc1COc1cccc(Nc2ncnc3cc4oc(=O)n(CCCN5CCOCC5)c4cc23)c1
[2]
  IC50: 0.099 µM
KB
  IC50: 16 µM
A498
  IC50: 35.3 µM

## Cc1ccc(Nc2ncnc3cc4oc(=O)n(CCCN5CCOCC5)c4cc23)cc1
[2]
  IC50: 0.067 µM
[3]
  IC50: 7.5 µM

## O=c1oc2cc3ncnc(Nc4ccc(F)c(Cl)c4)c3cc2n1CCCN1CCOCC1
[2]
  IC50: 0.078 µM
KB
  IC50: 6.5 µM
A498
  IC50: 32 µM

## O=c1oc2cc3ncnc(Nc4ccc5[nH]ncc5c4)c3cc2n1CCCN1CCOCC1
[2]
  IC50: 0.12 µM
KB
  IC50: 18.5 µM
A498
  IC50: 18.7 µM

## O=c1oc2cc3ncnc(Nc4ccc(F)c(F)c4)c3cc2n1CCCN1CCOCC1
[2]
  IC50: 0.57 µM

## CCOC(=O)c1ccc(O)c(Nc2ncnc3cc4oc(=O)n(CCCN5CCOCC5)c4cc23)c1
[2]
  IC50: 0.23 µM
KB
  IC50: 8.1 µM
A498
  IC50: 15.7 µM

## Cc1c(OCC(F)(F)F)ccnc1COc1ccc(Nc2ncnc3cc4oc(=O)n(CCCN5CCOCC5)c4cc23)cc1
[2]
  IC50: 7.8 µM

## O=c1oc2cc3ncnc(Nc4ccc(OCc5ccc(Cl)cc5)c(Cl)c4)c3cc2n1CCCN1CCOCC1
[2]
  IC50: 0.061 µM
KB
  IC50: 0.82 µM
A498
  IC50: 3 µM

## Cc1ccccc1Nc1ncnc2cc3oc(=O)n(CCCN4CCOCC4)c3cc12
[1]
  inhibition: inactive

## CC(=O)c1cccc(Nc2ncnc3cc4oc(=O)n(CCCN5CCOCC5)c4cc23)c1
[2]
  IC50: 6.8 µM

## COc1ccc(Nc2ncnc3cc4oc(=O)n(CCCN5CCOCC5)c4cc23)cc1
[2]
  IC50: 0.38 µM

## O=c1oc2cc3ncnc(Nc4ccc(O)cc4)c3cc2n1CCCN1CCOCC1
[1]
  inhibition: inactive
[3]
  IC50: 66 µM

## O=c1oc2cc3ncnc(Nc4ccc(Cl)cc4)c3cc2n1CCCN1CCOCC1
[1]
  inhibition: inactive

## Cc1cc(C)cc(Nc2ncnc3cc4oc(=O)n(CCCN5CCOCC5)c4cc23)c1
[2]
  IC50: 75 µM

## CC(C)(C)c1ccc(Nc2ncnc3cc4oc(=O)n(CCCN5CCOCC5)c4cc23)cc1
[2]
  IC50: 79 µM

## C[C@@H](Nc1ncnc2cc3oc(=O)n(CCCN4CCOCC4)c3cc12)c1ccccc1
[2]
  IC50: 4.5 µM

## O=c1oc2cc3ncnc(NCc4ccccc4)c3cc2n1CCCN1CCOCC1
[2]
  IC50: 65 µM

## O=c1oc2cc3ncnc(Nc4ccc(OCc5ccccc5)cc4)c3cc2n1CCCN1CCOCC1
[2]
  IC50: 0.14 µM
KB
  IC50: 37.6 µM
A498
  IC50: 14.8 µM

## O=c1oc2cc3ncnc(N[C@H]4CC[C@H](O)CC4)c3cc2n1CCCN1CCOCC1
[1]
  inhibition: inactive

## O=C(OCc1ccc(Cl)cc1)c1ccc(Nc2ncnc3cc4oc(=O)n(CCCN5CCOCC5)c4cc23)cc1
[1]
  inhibition: inactive

## CC(=O)Nc1ccc(Nc2ncnc3cc4oc(=O)n(CCCN5CCOCC5)c4cc23)cc1
[1]
  inhibition: inactive

## O=c1oc2cc3ncnc(Nc4ccc(OCc5ccc(Cl)cc5)cc4)c3cc2n1CCCN1CCOCC1
[2]
  IC50: 0.99 µM
KB
  IC50: 37.1 µM
A498
  IC50: 7.4 µM
